The text below walks through data of patent publication US6436649B1, “Method for detecting and/or quantifying a hapten in a homogeneous phase and device for implementation thereof” (priority 1996, dated 2002).

Molecules are shown by their SMILES. Where two headings read alike, the source gives them in different places.

The target in one assay is T1, type C β-lactamases (Enterobacter cloacae, UniProt P05364).
T1 construct: Ki
The conditions noted are these: Ki of the parent inhibitor; cited from earlier work.

Another assay deals with Citro.F. β-lactamase (Citrobacter freundii, UniProt P05193). The conditions noted are these: enzyme Citro.F.; cited from earlier work.
Citro.F. β-lactamase, sequence (P05193 21-381): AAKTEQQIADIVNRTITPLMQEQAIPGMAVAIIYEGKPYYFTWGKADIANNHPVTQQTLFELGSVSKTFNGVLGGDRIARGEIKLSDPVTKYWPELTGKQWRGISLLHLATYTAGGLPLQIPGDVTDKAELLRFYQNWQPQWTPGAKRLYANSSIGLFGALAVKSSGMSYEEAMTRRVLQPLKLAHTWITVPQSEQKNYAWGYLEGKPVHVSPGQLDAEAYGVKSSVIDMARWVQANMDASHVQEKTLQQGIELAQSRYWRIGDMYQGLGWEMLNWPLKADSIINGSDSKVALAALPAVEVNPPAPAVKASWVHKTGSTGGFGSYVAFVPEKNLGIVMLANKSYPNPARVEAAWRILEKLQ
For a further assay, the target named is P99/Q908R β-lactamases (Enterobacter cloacae, UniProt P05364). The following applies: cited from earlier work.
The target of another assay is E. Coli β-lactamase (Escherichia coli, UniProt P00811). The following applies: enzyme E. Coli; cited from earlier work.
E. Coli β-lactamase, sequence (P00811 20-377): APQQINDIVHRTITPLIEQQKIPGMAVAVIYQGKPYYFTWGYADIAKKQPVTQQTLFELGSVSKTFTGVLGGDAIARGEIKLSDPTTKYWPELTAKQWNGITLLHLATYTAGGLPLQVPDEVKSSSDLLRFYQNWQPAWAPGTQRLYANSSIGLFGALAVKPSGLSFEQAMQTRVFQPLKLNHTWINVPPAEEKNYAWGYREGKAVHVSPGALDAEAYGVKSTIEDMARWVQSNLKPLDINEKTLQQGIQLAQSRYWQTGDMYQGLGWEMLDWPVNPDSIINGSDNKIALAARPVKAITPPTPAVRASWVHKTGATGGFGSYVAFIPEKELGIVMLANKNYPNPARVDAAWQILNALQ
Another assay deals with T2, β-lactamase from P99 (Enterobacter cloacae, UniProt P05364).
T2 construct: host or cells: Enterobacter cloacae P99 (strain of origin as printed)
In words: Inhibitory activity in the presence of anti-nandrolone antibodies. It counts as biochemical. The following applies: P99, [S] 60, [E] 0.25, [I] 0.2 μM. The text has this: (§1) The objective of these measurements, by way of example, is the evaluation of the restoration of the predominant part of the enzymatic activity in the presence of a precise quantity of inhibitor.

The target of assay [1] is T3, β-lactamase from E. Coli (Escherichia coli, UniProt P00811). Described as above. Type of assay: biochemical. The following applies: for V1: without antibodies.
T3 sequence (P00811 20-377): as above
From the text: as §1

Assay [2] has as its target β-lactamase from C. Freundii (Citrobacter freundii, UniProt P05193). Put plainly: Inhibitory activity (Ki) on nitrocefin hydrolysis by β-lactamase. It counts as biochemical. The text has this: (§2) The choice of the inhibitor depends on the kinetic parameters and on the possibilities of coupling with the hapten to be assayed (presence of functional groups which are not essential for the inhibitory activity). At the enzymatic level, the ideal inhibitor should have a kcat which is as low as possible (very slow rate of degradation) while having a Km which is as low as possible (high affinity for the enzyme) . In the case of the inhibition reactions envisaged, the Km value is close to the constant Ki. The Km can therefore be estimated from an evaluation of the Ki. This is obtained from kinetic measurements carried out in the presence of a reporter substrate with known characteristics, and this in the presence of a variable quantity of inhibitor. The ideal inhibitor should also have a rate constant k+1 (corresponding to the step of binding of the inhibitor to the enzyme) which is as high as possible. Based on this principle, it has been possible to select five inhibitors. They are:
(§3) The measurements were carried out on β-lactamases from different bacterial strains: Enterobacter cloacae P99, Escherichia coli and Citrobacter freundii, symbolized by: P99, E. Coli and C. Freundii.
(§4) The measurements are divided into four parts. […] The second is an evaluation of the inhibitory activity of the inhibitors (Table 9). The third groups together the measurements of enzymatic activity in order to determine the quantity of antibody to be used in the assay. The fourth part comprises the assay of the haptens.
(§5) By way of example, the results of a selective study carried out on this compound are provided. The results presented in Table 9 give the values obtained according to a similar method. […] These measurements determine the concentrations of inhibitor (I) to be used during the assay.

The target of assay [3] is T4, β-lactamase from Enterobacter cloacae P99 (Enterobacter cloacae, UniProt P05364).
T4 construct: host or cells: Enterobacter cloacae P99 (strain of origin as printed)
Described as above. It counts as biochemical.
From the text: as §2, §3, §4, §5

Assay [4] addresses T3, β-lactamase from E. Coli. Described as above. Type of assay: biochemical.
From the text: as §2, §3, §4, §5

Assay [5] relates to P99/Q908E/E. Coli β-lactamases. The conditions noted are these: enzymes P99/Q908E/E. Coli; cited from earlier work.
Setting [6] is: C. Freundii [E] 0.375 nM, [S] nitrocefin 60 μM, [I] 0.1 μM.
Where [7] appears, read: C. Freundii [E] 0.375 nM, [S] nitrocefin 60 μM, [I] 0.2 μM.
Where [8] appears, read: P99 [E] 0.0625 nM, [S] nitrocefin 50 μM, [I] 0.1 μM.
Where [9] appears, read: P99 [E] 0.0625 nM, [S] nitrocefin 50 μM, [I] 0.3 μM.
The mark [10] stands for this setting: P99 [E] 0.0625 nM, [S] nitrocefin 50 μM, [I] 0.4 μM.
[11] abbreviates: P99 [E] 0.0625 nM, [S] nitrocefin 50 μM, [I] 0.5 μM.
Where [12] appears, read: P99 [E] […], [S] nitrocefin 60 μM, [I] 0.2 μM.
Setting [13] is: P99 [E] […], [S] nitrocefin 60 μM, [I] 0.24 μM.
Setting [14] is: E. Coli [E] 1 nM, [S] nitrocefin 150 μM, [I] 0.2 μM.
Where [15] appears, read: E. Coli [E] 1 nM, [S] nitrocefin 150 μM, [I] 0.4 μM.

β-lactamase from C. Freundii, sequence (P05193 21-381): as the sequence (P05193 21-381) above

The Ki is a measure of affinity in units of concentration, obtained from inhibition or displacement. By Km is commonly meant the substrate concentration at which the rate is half of its maximum. In the case of `CC1(C)S[C@@H]2[C@H](NC(=O)C(C(=O)O)c3ccccc3)C(=O)N2[C@H]1C(=O)O` (stereo partly drawn) [Carbenicillin], the Ki at type C β-lactamases was 10 nM. The Michaelis constant (Km) on Citro.F. β-lactamase was 0.0005 µM; on P99/Q908R β-lactamases (enzyme P99/Q908R), 0.01 µM; at E. Coli β-lactamase, 0.02 µM. The kcat was 0.004 S^−1 at Citro.F. β-lactamase, 0.002 S^−1 on P99/Q908R β-lactamases (enzyme P99/Q908R) and 0.003 S^−1 on E. Coli β-lactamase.
As to `Cc1nnc(SCC2=C(C(=O)O)N3C(=O)[C@@H](NC(=O)Cn4cnnn4)[C@H]3SC2)s1` [Cefazolin], on E. Coli β-lactamase, the Michaelis constant (Km) is 400 µM and the kcat is reported as 3000 150 S^−1.
For `CO/N=C(\C(=O)N[C@@H]1C(=O)N2C(C(=O)O)=C(COC(C)=O)CS[C@H]12)c1csc(N)n1` [Cefotaxime], the Km was 0.01 µM on P99/Q908R β-lactamases (enzyme P99/Q908R) and 1.7 µM on E. Coli β-lactamase. Also, the kcat is listed as 0.01 S^−1 on P99/Q908R β-lactamases (enzyme P99/Q908R) and 0.17 S^−1 at E. Coli β-lactamase.
For `CC(=O)OCC1=C(C(=O)O)N2C(=O)[C@@H](NC(=O)CC#N)[C@H]2SC1` [Cephaestrile], at P99/Q908R β-lactamases (enzyme P99/Q908R), the Km was 140 µM and the kcat is reported as 143 S^−1.
Take `CC(=O)OCC1=C(C(=O)O)N2C(=O)[C@@H](NC(=O)[C@H](N)c3ccccc3)[C@H]2SC1` [Cephaglycine]: at P99/Q908R β-lactamases (enzyme P99/Q908R), the kcat is given as 1 S^−1. On P99/Q908R β-lactamases (enzyme P99/Q908R, read-out: Km), the Km was 2 µM.
Turning to `CC1=C(C(=O)O)N2C(=O)[C@@H](NC(=O)[C@H](N)c3ccccc3)[C@H]2SC1` [Cephalexin], the kcat on P99/Q908R β-lactamases (enzyme P99/Q908R) is recorded as 100 S^−1; at E. Coli β-lactamase it was 38 S^−1. Besides, the Km on P99/Q908R β-lactamases (enzyme P99/Q908R, read-out: Km) was 10 µM; on E. Coli β-lactamase it was 4 µM.
As for `O=C(Cc1cccs1)N[C@@H]1C(=O)N2C(C(=O)[O-])=C(C[n+]3ccccc3)CS[C@H]12` [Cephaloridine], the figures for the Km at Citro.F. β-lactamase, on P99/Q908R β-lactamases (enzyme P99/Q908R) and on E. Coli β-lactamase were 35 µM, 70 µM and 170 µM, respectively. Besides, the kcat at Citro.F. β-lactamase is reported as 700 S^−1; at P99/Q908R β-lactamases (enzyme P99/Q908R), 650 S^−1; at E. Coli β-lactamase, 130 S^−1.
As to `CC(=O)OCC1=C(C(=O)O)N2C(=O)[C@@H](NC(=O)CCC[C@@H](N)C(=O)O)[C@H]2SC1` [Cephalosporin C], the kcat on P99/Q908R β-lactamases (enzyme P99/Q908R) is 1100 S^−1. For the same molecule, the Michaelis-Menten constant (Km) on P99/Q908R β-lactamases (enzyme P99/Q908R, read-out: Km) is 400 µM.
Turning to `CC(=O)OCC1=C(C(=O)O)N2C(=O)[C@@H](NC(=O)Cc3cccs3)[C@H]2SC1` [Cephalothin], on P99/Q908R β-lactamases (enzyme P99/Q908R), the Michaelis constant (Km) was 15 µM and the kcat is listed as 200 S^−1. At E. Coli β-lactamase, the Michaelis constant (Km) is 42 µM and the kcat was 300 S^−1.
For the molecule `CC1(C)S[C@@H]2[C@H](NC(=O)C(C(=O)O[C@H]3CC[C@H]4[C@@H]5CCC6=CC(=O)CC[C@@H]6[C@H]5CC[C@]34C)c3ccccc3)C(=O)N2[C@H]1C(=O)O` (stereo partly drawn) [Conjugate 1, nandrolone carbenicillinate], the Vab at β-lactamase from P99 (anti-nandrolone serum dil. 500 x) is 200 nM/s; on β-lactamase from P99 (anti-nandrolone serum dil. 625 x), 200 nM/s; on β-lactamase from P99 (anti-nandrolone serum dil. 770 x) it was 189 nM/s; on β-lactamase from P99 (anti-nandrolone serum dil. 1000 x) it was 170 nM/s; on β-lactamase from E. Coli [1] ([S] 150, [E] 1, [I] 0.24 μM, anti-nandrolone serum dil. 625 x), 307 nM/s; on β-lactamase from E. Coli [1] ([S] 150, [E] 1, [I] 0.24 μM, anti-nandrolone serum dil. 714 x), 299 nM/s. Further, the Vab on β-lactamase from E. Coli [1] ([S] 150, [E] 1, [I] 1 μM, anti-nandrolone serum dil. 100 x) stood at 211 nM/s; on β-lactamase from E. Coli [1] ([S] 150, [E] 1, [I] 1 μM, anti-nandrolone serum dil. 125 x), 210 nM/s; at β-lactamase from E. Coli [1] ([S] 150, [E] 1, [I] 1 μM, anti-nandrolone serum dil. 140 x), 200 nM/s; on β-lactamase from E. Coli [1] ([S] 150, [E] 1, [I] 1 μM, anti-nandrolone serum dil. 200 x), 174 nM/s; at β-lactamase from E. Coli [1] ([S] 150, [E] 1, [I] 1 μM, anti-nandrolone serum dil. 500 x), 123 nM/s. Moreover, the V1 on β-lactamase from P99 (without antibodies) turned out to be 131 nM/S; at β-lactamase from E. Coli [1] ([S] 150, [E] 1, [I] 0.24 μM), 210 nM/S; on β-lactamase from E. Coli [1] ([S] 150, [E] 1, [I] 1 μM), 90 nM/S; in assay [2] (setting [6]) it was 209 nM/s; in assay [2] (setting [7]), 163 nM/s; in assay [3] (setting [8]) it was 36 nM/s. The V1 in assay [3] (setting [9]) is 20 nM/s; in assay [3] (setting [10]), 17 nM/s; in assay [3] (setting [11]) it was 16 nM/s; in assay [3] (setting [12]), 131 nM/s; in assay [3] (setting [13]) it was 116 nM/s; at β-lactamase from E. Coli [4] (setting [14]), 260 nM/s. Further, the V1 on β-lactamase from E. Coli [4] (setting [15]) is 220 nM/s. Also, the “V0/V1 1” value in [2] (setting [6]) is 0.15; in assay [2] (setting [7]), 0.47; in [3] (setting [8]), 0.44; in assay [3] (setting [9]), 1.6; in assay [3] (setting [10]) it was 2.06; in assay [3] (setting [11]), 2.25. Further, the “V0/V1 1” value is given as 0.66 in assay [3] (setting [12]), 0.88 in assay [3] (setting [13]), 0.19 on β-lactamase from E. Coli [4] (setting [14]) and 0.41 at β-lactamase from E. Coli [4] (setting [15]). Further, the Ki was found to be 80 nM in assay [2] (setting [6]); 62 nM in [2] (setting [7]); 71 nM in assay [2] (C. Freundii, summary value of the two determinations); 74 nM in [3] (P99, summary value of the six determinations); 76 nM in assay [3] (setting [8]); 62 nM in [3] (setting [9]). For the same molecule, the Ki in assay [3] (setting [10]) is 65 nM; in assay [3] (setting [11]) it was 74 nM; in [3] (setting [12]), 88 nM; in assay [3] (setting [13]) it was 78 nM; in [3] (enzyme from P99), 70 nM; at β-lactamase from E. Coli [4] (setting [14]), 800 nM. Besides, the Ki on β-lactamase from E. Coli [4] (setting [15]) was determined as 760 nM; at β-lactamase from E. Coli [4] (E. Coli, summary value of the two determinations) it was 780 nM.
Consider `COc1cccc(OC)c1C(=O)N[C@@H]1C(=O)N2[C@@H]1SC(C)(C)[C@@H]2C(=O)O` [Methicillin], for which the Michaelis constant (Km) was 0.002 µM on Citro.F. β-lactamase, 0.03 µM at P99/Q908R β-lactamases (enzyme P99/Q908R) and 0.15 µM on E. Coli β-lactamase. In addition, the results for the kcat on Citro.F. β-lactamase, at P99/Q908R β-lactamases (enzyme P99/Q908R) and at E. Coli β-lactamase were 0.01 S^−1, 0.007 S^−1 and 0.08 S^−1, respectively.
As for `O=C(Cc1cccs1)N[C@@H]1C(=O)N2C(C(=O)O)=C(/C=C/c3ccc([N+](=O)[O-])cc3[N+](=O)[O-])CS[C@H]12` [Nitrocephin], the Km on Citro.F. β-lactamase is 12 µM; at P99/Q908R β-lactamases (enzyme P99/Q908R, read-out: Km) it was 25 µM; on E. Coli β-lactamase, 500 µM. Besides, the kcat at Citro.F. β-lactamase is 300 S^−1; on P99/Q908R β-lactamases (P99 enzyme, nitrocefin as reporter substrate), 780 s⁻¹; at P99/Q908R β-lactamases (enzyme P99/Q908R), 780 S^−1; at E. Coli β-lactamase, 500 S^−1.
For `CC1(C)S[C@@H]2[C@H](NC(=O)[C@H](C(=O)O)c3ccsc3)C(=O)N2[C@H]1C(=O)O` [Ticarcillin], in assay [5], the Km was 0.25 µM and the kcat was 0.045 S^−1.
